# Data taken from ChEMBL document CHEMBL4706534, “1,2,3-Triazole-containing hybrids with potential antibacterial activity against methicillin-resistant Staphylococcus aureus (MRSA)” (Eur J Med Chem, 2020).
# Key:
# Staphylococcus aureus [1] = test: Antibacterial activity against Methicillin-resistant Staphylococcus aureus incubated for 24 hrs by broth microdilution method; assay type: functional
# Staphylococcus aureus [2] = test: Antibacterial activity against Methicillin-resistant Staphylococcus aureus 1 incubated for 16 hrs by agar dilution method; assay type: functional
# Enterococcus [3] = test: Antibacterial activity against Vancomycin-resistant enterococcus 1 incubated for 16 hrs by agar dilution method; assay type: functional
# Enterococcus [4] = test: Antibacterial activity against Vancomycin-resistant enterococcus 2 incubated for 16 hrs by agar dilution method; assay type: functional
# Staphylococcus aureus [5] = test: Antibacterial activity against Methicillin-resistant Staphylococcus aureus 2 incubated for 16 hrs by agar dilution method; assay type: functional
# Staphylococcus aureus [6] = test: Antibacterial activity against Methicillin-resistant Staphylococcus aureus KU60; assay type: functional
# Staphylococcus aureus [7] = test: Antibacterial activity against Staphylococcus aureus NRS121 incubated for 18 hrs by CLSI-based two fold agar dilution method; assay type: functional
# Staphylococcus aureus [8] = test: Antibacterial activity against Staphylococcus aureus NRS119 incubated for 18 hrs by CLSI-based two fold agar dilution method; assay type: functional
# Staphylococcus aureus [9] = test: Antibacterial activity against Staphylococcus aureus NRS271 incubated for 18 hrs by CLSI-based two fold agar dilution method; assay type: functional
# Staphylococcus aureus [10] = test: Antibacterial activity against Staphylococcus aureus NRS127 incubated for 18 hrs by CLSI-based two fold agar dilution method; assay type: functional
# Staphylococcus aureus [11] = test: Antibacterial activity against Methicillin-resistant Staphylococcus aureus ATCC 33591; assay type: functional, organism-based
# Staphylococcus aureus [12] = test: Antibacterial activity against Staphylococcus aureus ATCC 29213; assay type: functional, organism-based
# Staphylococcus aureus [13] = test: Antibacterial activity against methicillin-resistant Staphylococcus aureus ATCC 33591 incubated for 18 hrs; assay type: functional
# Staphylococcus aureus [14] = test: Potency index, ratio of linezolid MIC to compound MIC for antibacterial activity against methicillin-resistant Staphylococcus aureus ATCC 33591; assay type: functional
# Staphylococcus aureus [15] = test: Antibacterial activity against methicillin-susceptible Staphylococcus aureus ATCC 25923 incubated for 18 hrs; assay type: functional
# Staphylococcus aureus [16] = test: Resistance index, ratio of MIC for antibacterial activity against Staphylococcus aureus ATCC 43300 incubated for 18 hrs to MIC for antibacterial activity against Staphylococcus aureus ATCC 25923 incubated for 18 hrs; assay type: functional
# Staphylococcus aureus [17] = test: Antibacterial activity against methicillin-resistant Staphylococcus aureus ATCC 43300 incubated for 18 hrs; assay type: functional
# Staphylococcus aureus [18] = test: Antibacterial activity against Methicillin-resistant Staphylococcus aureus USA300 by CLSI-based microdilution method; assay type: functional
# Staphylococcus aureus [19] = test: Antibacterial activity against Methicillin-resistant Staphylococcus aureus USA200 by CLSI-based microdilution method; assay type: functional
# Staphylococcus aureus [20] = test: Antibacterial activity against Methicillin-resistant Staphylococcus aureus USA100 by CLSI-based microdilution method; assay type: functional
# Staphylococcus aureus [21] = test: Antibacterial activity against Methicillin-resistant Staphylococcus aureus USA600 by CLSI-based microdilution method; assay type: functional
# Staphylococcus aureus [22] = test: Antibacterial activity against wild type Methicillin-resistant Staphylococcus aureus by CLSI-based microdilution method; assay type: functional
# Staphylococcus aureus [23] = test: Bactericidal activity against methicillin-resistant Staphylococcus aureus ATCC 33591 measured after 20 hrs; assay type: functional
# Staphylococcus aureus [24] = test: Antibacterial activity against Methicillin-resistant Staphylococcus aureus ATCC 33591 incubated for 20 hrs by broth two-fold dilution method; assay type: functional
compound,measurement,setting,value
Cc1ccc(-n2cc(Cn3c4ccccc4c(=O)c4cc(C)ccc43)nn2)cc1,MIC,Staphylococcus aureus [1],19.6 µg/mL
CC(C)C[C@H](C(=O)N[C@@H]1Cc2ccc(c(Cl)c2)Oc2cc3cc(c2O[C@@H]2O[C@H](CO)[C@@H](O)[C@H](O)[C@H]2O[C@H]2C[C@](C)(NCCCCCCCc4ccccc4)[C@H](O)[C@H](C)O2)Oc2ccc(cc2Cl)[C@@H](O)[C@@H]2NC(=O)[C@H](NC(=O)[C@@H]3NC(=O)[C@H](CC(=O)O)NC1=O)c1ccc(O)c(c1)-c1c(O)cc(O)cc1[C@H](C(=O)O)NC2=O)n1cc(COCCCCCCOCc2cn([C@H](CC(C)C)C(=O)N[C@@H]3Cc4ccc(c(Cl)c4)Oc4cc5cc(c4O[C@@H]4O[C@H](CO)[C@@H](O)[C@H](O)[C@H]4O[C@H]4C[C@](C)(NCCCCCCCc6ccccc6)[C@H](O)[C@H](C)O4)Oc4ccc(cc4Cl)[C@@H](O)[C@@H]4NC(=O)[C@H](NC(=O)[C@@H]5NC(=O)[C@H](CC(=O)O)NC3=O)c3ccc(O)c(c3)-c3c(O)cc(O)cc3[C@H](C(=O)O)NC4=O)nn2)nn1,MIC,Staphylococcus aureus [2],12.5 µg/mL
same,MIC,Enterococcus [3],25 µg/mL
same,MIC,Enterococcus [4],12.5 µg/mL
same,MIC,Staphylococcus aureus [5],12.5 µg/mL
O=C(C(Cl)Cl)N1CCN(c2ccc(N3C[C@H](Cn4ccnn4)OC3=O)cc2F)CC1,MIC,Staphylococcus aureus [6],0.25 µg/mL
CC(=O)NC[C@H]1CN(c2ccc(N3C[C@H]4CC(n5ccnn5)C[C@H]4C3)c(F)c2)C(=O)O1 (some centres undefined),MIC,Staphylococcus aureus [7],16 µg/mL
same,MIC,Staphylococcus aureus [8],16 µg/mL
same,MIC,Staphylococcus aureus [9],16 µg/mL
same,MIC,Staphylococcus aureus [10],16 µg/mL
COc1c(Cn2cc(-c3nnc(-c4ccccc4)o3)nn2)c(OC)c(OC)c(OC)c1OC,IC50,Staphylococcus aureus [11],6.4 µg/mL
same,IC50,Staphylococcus aureus [12],7 µg/mL
CC(=O)NC[C@H]1CN(c2ccc(-n3cc(-c4ccccn4)nn3)c(F)c2)C(=O)O1,MIC,Staphylococcus aureus [13],0.5 µg/mL
same,Ratio,Staphylococcus aureus [14],4
same,MIC,Staphylococcus aureus [15],2 µg/mL
NC[C@H]1O[C@@H](O[C@@H](Cc2cn(CCCCCCCCCCOc3ccc(C(=O)c4ccccc4)cc3)nn2)[C@H]2O[C@@H](n3ccc(=O)[nH]c3=O)[C@H](O)[C@@H]2O)[C@H](O)[C@@H]1O.O=C(O)C(F)(F)F,Ratio,Staphylococcus aureus [16],0.5
same,MIC,Staphylococcus aureus [17],8 µg/mL
CC(=O)NC[C@H]1CN(c2ccc(-n3cc(-c4ccncn4)nn3)c(F)c2)C(=O)O1,MIC,Staphylococcus aureus [13],0.5 µg/mL
same,Ratio,Staphylococcus aureus [14],4
same,MIC,Staphylococcus aureus [15],2 µg/mL
CC(C)(C)C(=O)N1CCN(c2ccc(N3C[C@H](Cn4ccnn4)OC3=O)cc2F)CC1,MIC,Staphylococcus aureus [6],0.25 µg/mL
O=C(N[C@H](CO)[C@H](O)c1ccc([N+](=O)[O-])cc1)C(Cl)Cl [CHLORAMPHENICOL],MIC,Staphylococcus aureus [1],11.6 µg/mL
NC[C@@H]1O[C@H](O[C@H]2[C@@H](O)[C@H](O[C@@H]3[C@@H](O)[C@H](N)C[C@H](N)[C@H]3O[C@H]3O[C@H](CN)[C@@H](O)[C@H](O)[C@H]3N)O[C@@H]2CO)[C@H](N)[C@@H](O)[C@@H]1O [FRAMYCETIN],MIC,Staphylococcus aureus [18],> 50 µg/mL
same,MIC,Staphylococcus aureus [19],> 50 µg/mL
same,MIC,Staphylococcus aureus [20],> 50 µg/mL
same,MIC,Staphylococcus aureus [21],> 50 µg/mL
same,MIC,Staphylococcus aureus [22],> 50 µg/mL
COc1cc(/C=C/c2ccc(O)cc2)cc(OC)c1 [PTEROSTILBENE],MBC,Staphylococcus aureus [23],41 µg/mL
same,MIC,Staphylococcus aureus [24],41 µg/mL
